Source: article PMC12860872, “Preclinical evaluation of DOTAGA.Glu.(FAPI)2 and DO3A.Glu.(FAPI)2 as theranostics with human dosimetry extrapolation to lutetium-177 and terbium-161 analogs” (European Journal of Nuclear Medicine and Molecular Imaging, 2025)

Key:
FAP+ CAFs = experiment: Externalization from CAFs; assay type: cell-based, human; details: after 24 h at 37 °C
Procedure: For receptor saturation studies, FAP^+ CAFs were incubated with 0.1 to 10 nM of the radioligands. For internalization studies, approximately 2.5 pmol of the radioligands were added to CAFs followed by incubation for 15, 30, 60, 90, 120, 180 and 240 min for the ^68Ga-labeled or 30, 60, 120, 240 and 360 min for the ^177Lu-labeled radioligands at 37 °C, 5% CO2. For the externalization studies, approximately 2.5 pmol of the ^177Lu-labeled radioligands were added to CAFs followed by incubation for 2 h at 37 °C, 5% CO2. The amount of externalized activity was measured at 0, 10, 20, 30, 60, 120, 240, and 1440 min (Supplemental Data).
After the completion of the 2 hours of incubation, the medium was removed and CAF cells were washed with 1 mL of cold PBS (x2). The cells were then exposed to an acid wash with glycine buffer, as described above, to dissociate membrane-bound radioligand, and the fractions were collected. Fresh medium (1 mL/well) was added to the cells and were incubated at 37 °C. At different time points (10, 20, 30, 60, 120, 240 and 1440 minutes) the external medium was removed (followed by two washing steps with cold PBS). […] The radioactivity of the culture medium, the membrane-bound, the internalized and the externalized fractions were measured in a gamma-counter. The externalized fraction of radioactivity was expressed as the percentage of the total internalized amount.

PC3-mice [1] = experiment: Biodistribution in PC3-mice incl. blocking; assay type: in vivo, mouse; details: PC3-mice
Outline: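 Male athymic Balb/C nude mice carrying subcutaneous PC3 tumors (3.5 × 10^6 cells, shoulder) used at 250–300 mm^3. After euthanasia with pentobarbital, dissected organs were weighed and gamma-counted. Uptake given as % I.A./g, mean ± SD, n = 3–4.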

PC3-mice [2] = experiment: Organ clearance biological half-lives from biodistribution data; assay type: in vivo, mouse
Procedure: Blood samples were collected from the facial vein at 1, 3, 5, 7, 10, 15, 20, 30, 45, 60, 240, and 1440 min p.i., weighed, and measured for radioactivity using a γ-counter. Results were expressed as % I.A./g of blood and plotted over time. The initial and terminal half-lives were determined using Two-Phase Decay Model. The biological half-lives of selected organs were calculated from the biodistribution data using One-Phase Decay Model (GraphPad Prism 8).

[3] = Blocking 4h (20 nmol unlabeled precursor)
[4] = PC3-mice, One-Phase Decay Model

`N#C[C@@H]1CC(F)(F)CN1C(=O)CNC(=O)c1ccnc2ccc(OCCCCNC(=O)CC[C@H](NC(=O)CCC(C(=O)O)N3CCN(CC(=O)[O-])CCN(CC(=O)[O-])CCN(CC(=O)[O-])CC3)C(=O)NCCCCOc3ccc4nccc(C(=O)NCC(=O)N5CC(F)(F)C[C@H]5C#N)c4c3)cc12.[177Lu+3]` (stereo partly shown) [[^177Lu]Lu-DOTAGA.Glu.(FAPI)2] was tested, and the “initially internalized activity released” value (FAP+ CAFs) was ~ 40%, the “Uptake in Adrenal” value (PC3-mice [1]; 4 h p.i.) was 3±0.2 %I.A./g and the “Uptake in Blood” value (PC3-mice [1]; 4 h p.i.) was 2.1±0.1 %I.A./g. The “Uptake in Bone” value (PC3-mice [1]; 4 h p.i.) was 4±0.3 %I.A./g, the “Uptake in Gallbladder” value (PC3-mice [1]; 4 h p.i.) was 2.7±1.6 %I.A./g and the “Uptake in Heart” value (PC3-mice [1]; 4 h p.i.) was 0.9±0.1 %I.A./g. The “Uptake in Intestine” value (PC3-mice [1]; 4 h p.i.) was 0.8±0.3 %I.A./g, the “Uptake in Kidney” value (PC3-mice [1]; 4 h p.i.) was 2.6±0.4 %I.A./g and the “Uptake in Liver” value (PC3-mice [1]; 4 h p.i.) was 1.7±0.2 %I.A./g. The “Uptake in Lung” value (PC3-mice [1]; 4 h p.i.) was 1.1±0.1 %I.A./g, the “Uptake in Muscle” value (PC3-mice [1]; 4 h p.i.) was 1.4±0.3 %I.A./g and the “Uptake in Pancreas” value (PC3-mice [1]; 4 h p.i.) was 1.9±0.1 %I.A./g. For the same molecule, the “Uptake in Salivary glands” value (PC3-mice [1]; 4 h p.i.) was 6.2±1.2 %I.A./g, the “Uptake in Spleen” value (PC3-mice [1]; 4 h p.i.) was 0.9±0.1 %I.A./g and the “Uptake in Stomach” value (PC3-mice [1]; 4 h p.i.) was 0.8±0.1 %I.A./g. The “Uptake in Tumor” value (PC3-mice [1]; 4 h p.i.) was 16.2±2.5 %I.A./g, the “Uptake in Adrenal” value (PC3-mice [1]; 24 h p.i.) was 1.9±0.2 %I.A./g and the “Uptake in Blood” value (PC3-mice [1]; 24 h p.i.) was 0.9±0.2 %I.A./g. For the same molecule, the “Uptake in Bone” value (PC3-mice [1]; 24 h p.i.) was 2.5±0.1 %I.A./g, the “Uptake in Gallbladder” value (PC3-mice [1]; 24 h p.i.) was 0.4±0.1 %I.A./g and the “Uptake in Heart” value (PC3-mice [1]; 24 h p.i.) was 0.6±0.1 %I.A./g. The “Uptake in Intestine” value (PC3-mice [1]; 24 h p.i.) was 0.4±0.1 %I.A./g, the “Uptake in Kidney” value (PC3-mice [1]; 24 h p.i.) was 1.3±0.2 %I.A./g and the “Uptake in Liver” value (PC3-mice [1]; 24 h p.i.) was 2.1±0.2 %I.A./g. The “Uptake in Lung” value (PC3-mice [1]; 24 h p.i.) was 0.6±0.2 %I.A./g, the “Uptake in Muscle” value (PC3-mice [1]; 24 h p.i.) was 0.8±0.1 %I.A./g and the “Uptake in Pancreas” value (PC3-mice [1]; 24 h p.i.) was 0.9±0.7 %I.A./g. The “Uptake in Salivary glands” value (PC3-mice [1]; 24 h p.i.) was 2.9±0.5 %I.A./g, the “Uptake in Spleen” value (PC3-mice [1]; 24 h p.i.) was 0.7±0.2 %I.A./g and the “Uptake in Stomach” value (PC3-mice [1]; 24 h p.i.) was 0.4±0.1 %I.A./g. For the same molecule, the “Uptake in Tumor” value (PC3-mice [1]; 24 h p.i.) was 7.3±0.6 %I.A./g, the “Uptake in Adrenal” value (PC3-mice [1]; 48 h p.i.) was 1.3±0.3 %I.A./g and the “Uptake in Blood” value (PC3-mice [1]; 48 h p.i.) was 0.2±0.03 %I.A./g. The “Uptake in Bone” value (PC3-mice [1]; 48 h p.i.) was 1.3±0.1 %I.A./g, the “Uptake in Gallbladder” value (PC3-mice [1]; 48 h p.i.) was 0.1±0.1 %I.A./g and the “Uptake in Heart” value (PC3-mice [1]; 48 h p.i.) was 0.4±0.04 %I.A./g. For the same molecule, the “Uptake in Intestine” value (PC3-mice [1]; 48 h p.i.) was 0.2±0.01 %I.A./g, the “Uptake in Kidney” value (PC3-mice [1]; 48 h p.i.) was 1±0.2 %I.A./g and the “Uptake in Liver” value (PC3-mice [1]; 48 h p.i.) was 1.9±0.5 %I.A./g. For the same molecule, the “Uptake in Lung” value (PC3-mice [1]; 48 h p.i.) was 0.3±0.1 %I.A./g, the “Uptake in Muscle” value (PC3-mice [1]; 48 h p.i.) was 0.5±0.1 %I.A./g and the “Uptake in Pancreas” value (PC3-mice [1]; 48 h p.i.) was 0.6±0.1 %I.A./g. For the same molecule, the “Uptake in Salivary glands” value (PC3-mice [1]; 48 h p.i.) was 2.2±0.3 %I.A./g, the “Uptake in Spleen” value (PC3-mice [1]; 48 h p.i.) was 0.5±0.04 %I.A./g and the “Uptake in Stomach” value (PC3-mice [1]; 48 h p.i.) was 0.3±0.03 %I.A./g. The “Uptake in Tumor” value (PC3-mice [1]; 48 h p.i.) was 5.1 ± 0.1 %I.A./g, the “Uptake in Adrenal” value (PC3-mice [1]; 72 h p.i.) was 0.9±0.02 %I.A./g and the “Uptake in Blood” value (PC3-mice [1]; 72 h p.i.) was 0.1±0.03 %I.A./g. The “Uptake in Bone” value (PC3-mice [1]; 72 h p.i.) was 0.9±0.2 %I.A./g, the “Uptake in Gallbladder” value (PC3-mice [1]; 72 h p.i.) was 0.1±0.1 %I.A./g and the “Uptake in Heart” value (PC3-mice [1]; 72 h p.i.) was 0.3±0.1 %I.A./g. For the same molecule, the “Uptake in Intestine” value (PC3-mice [1]; 72 h p.i.) was 0.1±0.02 %I.A./g, the “Uptake in Kidney” value (PC3-mice [1]; 72 h p.i.) was 0.6±0.1 %I.A./g and the “Uptake in Liver” value (PC3-mice [1]; 72 h p.i.) was 1.4±0.4 %I.A./g. The “Uptake in Lung” value (PC3-mice [1]; 72 h p.i.) was 0.1±0.02 %I.A./g, the “Uptake in Muscle” value (PC3-mice [1]; 72 h p.i.) was 0.2±0.02 %I.A./g and the “Uptake in Pancreas” value (PC3-mice [1]; 72 h p.i.) was 0.4±0.03 %I.A./g. The “Uptake in Salivary glands” value (PC3-mice [1]; 72 h p.i.) was 0.7±0.04 %I.A./g, the “Uptake in Spleen” value (PC3-mice [1]; 72 h p.i.) was 0.3±0.1 %I.A./g and the “Uptake in Stomach” value (PC3-mice [1]; 72 h p.i.) was 0.1±0.02 %I.A./g. For the same molecule, the “Uptake in Tumor” value (PC3-mice [1]; 72 h p.i.) was 3.2±0.3 %I.A./g, the “Uptake in Adrenal” value (PC3-mice [1]; 96 h p.i.) was 0.5±0.01 %I.A./g and the “Uptake in Blood” value (PC3-mice [1]; 96 h p.i.) was 0.03±0 %I.A./g. For the same molecule, the “Uptake in Bone” value (PC3-mice [1]; 96 h p.i.) was 0.6±0.1 %I.A./g, the “Uptake in Gallbladder” value (PC3-mice [1]; 96 h p.i.) was 0.1±0.02 %I.A./g and the “Uptake in Heart” value (PC3-mice [1]; 96 h p.i.) was 0.2±0.02 %I.A./g. The “Uptake in Intestine” value (PC3-mice [1]; 96 h p.i.) was 0.1±0.02 %I.A./g, the “Uptake in Kidney” value (PC3-mice [1]; 96 h p.i.) was 0.4±0.04 %I.A./g and the “Uptake in Liver” value (PC3-mice [1]; 96 h p.i.) was 1.3±0.1 %I.A./g. For the same molecule, the “Uptake in Lung” value (PC3-mice [1]; 96 h p.i.) was 0.1±0.02 %I.A./g, the “Uptake in Muscle” value (PC3-mice [1]; 96 h p.i.) was 0.1±0.1 %I.A./g and the “Uptake in Pancreas” value (PC3-mice [1]; 96 h p.i.) was 0.2±0.02 %I.A./g. For the same molecule, the “Uptake in Salivary glands” value (PC3-mice [1]; 96 h p.i.) was 0.7±0.1 %I.A./g, the “Uptake in Spleen” value (PC3-mice [1]; 96 h p.i.) was 0.3±0.03 %I.A./g and the “Uptake in Stomach” value (PC3-mice [1]; 96 h p.i.) was 0.1±0.01 %I.A./g. The “Uptake in Tumor” value (PC3-mice [1]; 96 h p.i.) was 2.2±0.2 %I.A./g, the “Uptake in Adrenal” value (PC3-mice [1]; [3]) was 0.8±0.5 %I.A./g and the “Uptake in Blood” value (PC3-mice [1]; [3]) was 0.03±0.01 %I.A./g. For the same molecule, the “Uptake in Bone” value (PC3-mice [1]; [3]) was 0.7±0.1 %I.A./g, the “Uptake in Gallbladder” value (PC3-mice [1]; [3]) was 0.2±0.2 %I.A./g and the “Uptake in Heart” value (PC3-mice [1]; [3]) was 0.2±0.04 %I.A./g. The “Uptake in Intestine” value (PC3-mice [1]; [3]) was 0.1±0.02 %I.A./g, the “Uptake in Kidney” value (PC3-mice [1]; [3]) was 0.5±0.1 %I.A./g and the “Uptake in Liver” value (PC3-mice [1]; [3]) was 1.2±0.5 %I.A./g. For the same molecule, the “Uptake in Lung” value (PC3-mice [1]; [3]) was 0.1±0.04 %I.A./g, the “Uptake in Muscle” value (PC3-mice [1]; [3]) was 0.2±0.04 %I.A./g and the “Uptake in Pancreas” value (PC3-mice [1]; [3]) was 0.2±0.2 %I.A./g. The “Uptake in Salivary glands” value (PC3-mice [1]; [3]) was 0.6±0.2 %I.A./g, the “Uptake in Spleen” value (PC3-mice [1]; [3]) was 0.3±0.1 %I.A./g and the “Uptake in Stomach” value (PC3-mice [1]; [3]) was 0.09±0.02 %I.A./g. The “Uptake in Tumor” value (PC3-mice [1]; [3]) was 2.9±1.8 %I.A./g, the tumor uptake (PC3-mice [1]; at 1 h p.i. as printed) was ~ 15 %I.A./g and the “drop of tumor uptake (washed-out)” value (PC3-mice [1]; at 24 h vs 4 h p.i.) was ~ 50%. The “Bone clearance half-life, 95% confidence interval” value (PC3-mice [2]; [4]) was 27.60 to 33.77 h, the “Kidney clearance half-life, 95% confidence interval” value (PC3-mice [2]; [4]) was 23.41 to 38.84 h and the “Liver clearance half-life, 95% confidence interval” value (PC3-mice [2]; [4]) was 70.61 to 362.5 h. The “Pancreas clearance half-life, 95% confidence interval” value (PC3-mice [2]; [4]) was 16.87 to 39.95 h, the “Salivary glands clearance half-life, 95% confidence interval” value (PC3-mice [2]; [4]) was 12.06 to 34.90 h and the “Tumor clearance half-life, 95% confidence interval” value (PC3-mice [2]; [4]) was 19.85 to 32.80 h. It also gave a tumor biological half-life (PC3-mice [2]; PC3-tumors) of 25.5 h.
